Data from PMC10447463, “Data-mining unveils structure–property–activity correlation of viral infectivity enhancing self-assembling peptides” (Nature Communications, 2023).
Read-outs that look alike come from different tables or passages of the source.

Columns and labels:
[1] = format: physicochemical; set-up: key to Fibril / Fibril Formation / TEM 2cat / Fibril: 1 = fibrils present; 0 non-fibrillar structures; settings: for Fibril / Fibril Formation: 1 mg/mL, uranyl acetate stain, qualitative
[2] = tested on: HIV-1 infection of TZM-bl cells; test: HIV-1 infectivity enhancement assay, β-galactosidase luminescence; format: cell-based; settings: for Rel-EFC: infection relative to EF-C (QCKIKQIINMWQ = 1); for Log10 Infection Rel EFC: log10 of infection relative to EF-C; for Rel-to EFC (Feb-2021): n-fold infectivity relative to EF-C; for Log Infectivity: Log10 infection relative to EF-C, TZM-bl cells; for Log10 Infection Rel EF-C: HIV-1 infection of TZM-bl cells; for Abs. Inf.: absolute infection signal, HIV-1 on TZM-bl cells, β-galactosidase luminescence
[3] = Turbidity, derived count rate of scattered light; format: physicochemical; settings: for Count Rate: derived count rate of scattered light (turbidity); for Log10 Count Rate: turbidity, derived count rate of scattered light, data of Figure 2D
[4] = Zeta-potential measurement; format: physicochemical
In short: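 Readout: zeta potential (mV) derived by Smoluchowski from measured electrophoretic mobility. Preformed aggregates (1 mg/mL peptide, PBS pH 7.4, RT for 1 d) were diluted into dilute KCl electrolyte (1 mM) shortly before analysis.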

[5] = TEM, 1 = fibrils present, 0 = non-fibrillar
[6] = TEM, 1 = fibrils present, 0 = non-fibrillar structures
[7] = category: fibrils present or non-fibrillar
[8] = Fig. S7 panel A (plotted against β-sheet content), asymmetric std dev errors
[9] = Fig. S7 panel B (plotted against CR), rounded to two decimals, asymmetric std dev errors
[10] = Log10 of infection rate relative to EF-C, Figure 3A source data
[11] = infection rate relative to EF-C, log10, data of Figure 2D
[12] = infection rate relative to EF-C, log10, source data of Figure 2C
[13] = Log10 of infection relative to EF-C, all peptides of FigS16
[14] = log10 of HIV-1 infection of TZM-bl cells relative to EF-C (EF-C = 0)
[15] = zeta-potential of peptide, source data of Figure 2C
[16] = zeta-potential of the peptide assemblies, mean, Figure 3A source data
[17] = FigS12 panel A, fibril category by TEM
[18] = zeta potential of peptide assemblies

QCKIKQIINMWQ [reference compound]
TEM 2cat ([1]; Fig S10 panel D): 1 | Fibril ([1]; Fig S10 panel E): 1 | TEM: 1= fibrils, 0= aggregates (micelle), 0.5 = aggregates and fibrils, -1 = nothing obersved, STD prep ([1]; STD prep): 0.5 | Fibril / Fibril Formation ([1]; TEM): 1 | Fibril [1, 5]: 1 | Fibril [1, 6]: 1 | TEM 2cat [1, 7]: 1 | Rel-EFC ([2]; 1.3 µM peptide): 1 | n-fold infectivity enhancement compared to virus-only infectivity ([2]; 1.3 µM peptide, listed as EF-C): 42 ± 7 | Log10 Infection Rel EFC ([2]; 1.3 µM peptide): 0 | Absolute Infectivity / RLU /s (Feb2021) ([2]; Feb2021, figures match the 1.3 µM column): 21312.22222 RLU /s | n-fold to virus (Feb2021) ([2]; Feb2021, infectivity relative to virus only): 42.02 | Rel-to EFC (Feb-2021) ([2]; Feb2021): 1 | n-fold to virus (Feb2021) ([2]; Feb2021 run, infectivity n-fold relative to virus alone): 42.02 | Log10 of Rel to EFC (Feb2021) ([2]; Feb2021 run, log10 of infectivity relative to EF-C): 0 | Rel-to EFC (Feb-2021) ([2]; Feb2021 run): 1 | Rel-to EFC ([2]; Fig S8 panels B, D, infectivity enhancement relative to EF-C): 1 | n-fold to virus ([2]; Fig S8 panels B, D, infectivity n-fold relative to virus alone): 42.02 | Log Infectivity [2, 8]: 0 | Log Infectivity [2, 9]: 0 | Log10 Infection Rel EF-C [2, 10]: 0 | Log10 Infection Rel EF-C [2, 11]: 0 | Log10 Infection Rel EF-C [2, 12]: 0 | Log10 of Rel to EFC (Feb2021) [2, 13]: 0 | Abs. Inf. [2]: 21312.22222 | infectivity ([2]; infectivity class (low / medium / high) of the peptide in the sequence-pattern analysis, Fig. S22-A4, class limits not given): high | Log10 Inf. rel. to EF-C [2, 14]: 0 | Log10 Inf. rel. to EF-C ([2]; log10 of HIV-1 infection of TZM-bl cells relative to EF-C, Fig S15 source data, asymmetric std dev errors): 0 | Abs Infection at 0.26µM ([2]; peptide 0.26 µM, mean of n = 3, Figure 7A): 39053.33333 | Abs Infection at 1.3 µM ([2]; peptide 1.3 µM, mean of n = 3, Figure 7A): 101036.6667 | Abs Infection at 6.5 µM ([2]; peptide 6.5 µM, mean of n = 3, Figure 7A): 141063.3333 | Count Rate [3]: 2602 | Log10 Count Rate [3]: 3.415 | Zeta Pot. / mV [4]: 6.643 mV | Zeta category ( +1 = if > 4 mV;-1 = if < -4 mV; 0 = -4mV to 4 mV) [4]: 1 (+1 = if > 4 mV) | Zeta-Pot. [4]: 6.643 | Zeta category ( +1 = if > 4 mV;-1 = if < -4 mV; 0 = -4mV to 4 mV) ([4]; category from zeta potential): 1 (+1 = if > 4 mV) | Zeta Pot. / mV ([4]; mean, Std Zeta in next column): 6.643 mV | Zeta Pot. / mV ([4]; mean, Std in separate column): 6.643 mV | Zeta-pot. / mV ([4]; zeta potential of peptide, Fig S15 source data): 6.643 mV | Zeta-Potential / mV [4, 15]: 7.192 mV | Zeta-Potential / mV [4, 16]: 6.64 mV

QCKAKAQA
TEM 2cat ([1]; Fig S10 panel D): 0 | TEM 2cat [1, 17]: 0 | Fibril ([1]; FigS12 panel B, TEM): 0 | Fibril / Fibril Formation ([1]; TEM): 0 | Fibril [1, 5]: 0 | Fibril [1, 6]: 0 | Rel-EFC ([2]; 1.3 µM peptide): 0,03 | Log10 Infection Rel EFC ([2]; 1.3 µM peptide): -1,6 | Log Infectivity [2, 8]: -1.598 | Log10 Infection Rel EF-C [2, 10]: -1.6 | Log10 Infection Rel EF-C [2, 11]: -1.598 | Log10 Infection Rel EF-C [2, 12]: -1.598 | Abs. Inf. [2]: 806.7 | Log10 Inf. rel. to EF-C [2, 14]: -1.598 | Count Rate [3]: 1319.1 | Log10 Count Rate [3]: 3.12 | Zeta-Pot. [4]: 0.674 | Zeta-Potential / mV [4, 15]: 0.4918 mV | Zeta-Potential / mV [4, 16]: 0.67 mV

MDQMDQMDQMDQMDQ
TEM 2cat ([1]; Fig S10 panel D): 0 | Fibril ([1]; Fig S10 panel E): 0 | TEM 2cat [1, 17]: 0 | Fibril ([1]; FigS12 panel B, TEM): 0 | Fibril / Fibril Formation ([1]; TEM): 0 | Fibril [1, 5]: 0 | Fibril [1, 6]: 0 | Rel-EFC ([2]; 1.3 µM peptide): 0 | Log10 Infection Rel EFC ([2]; 1.3 µM peptide): -2,37 | Log Infectivity [2, 8]: -2.37 | Log Infectivity [2, 9]: -2.37 | Log10 Infection Rel EF-C [2, 10]: -2.37 | Log10 Infection Rel EF-C [2, 11]: -2.37 | Log10 Infection Rel EF-C [2, 12]: -2.37 | Abs. Inf. [2]: 63.33 | Log10 Inf. rel. to EF-C [2, 14]: -2.37 | Count Rate [3]: 9.6 | Log10 Count Rate [3]: 0.9823 | Zeta-Pot. [4]: -14.98 | Zeta-Potential / mV [4, 15]: -10.69 mV | Zeta-Potential / mV [4, 16]: -14.98 mV

EFEFQF
TEM 2cat ([1]; Fig S10 panel D): 0 | TEM 2cat [1, 17]: 0 | Fibril ([1]; FigS12 panel B, TEM): 0 | Fibril / Fibril Formation ([1]; TEM): 0 | Fibril [1, 5]: 0 | Fibril [1, 6]: 0 | Rel-EFC ([2]; 1.3 µM peptide): 0 | Log10 Infection Rel EFC ([2]; 1.3 µM peptide): -2,49 | Log Infectivity [2, 8]: -2.485 | Log10 Infection Rel EF-C [2, 10]: -2.49 | Log10 Infection Rel EF-C [2, 11]: -2.485 | Log10 Infection Rel EF-C [2, 12]: -2.485 | Count Rate [3]: 405.4 | Log10 Count Rate [3]: 2.608 | Zeta-Pot. [4, 18]: -24.5 | Zeta-Potential / mV [4, 15]: -14.88 mV | Zeta-Potential / mV [4, 16]: -24.5 mV

CKWKWQW
TEM 2cat ([1]; Fig S10 panel D): 1 | Fibril / Fibril Formation ([1]; TEM): 1 | Fibril [1, 5]: 1 | Fibril [1, 6]: 1 | TEM 2cat [1, 7]: 1 | Rel-EFC ([2]; 1.3 µM peptide): 0,25 | Log10 Infection Rel EFC ([2]; 1.3 µM peptide): -0,6 | Log Infectivity [2, 8]: -0.5951 | Log10 Infection Rel EF-C [2, 10]: -0.6 | Log10 Infection Rel EF-C [2, 11]: -0.5951 | Log10 Infection Rel EF-C [2, 12]: -0.5951 | Log10 of Rel to EFC (Feb2021) [2, 13]: -0.6 | Count Rate [3]: 7511 | Log10 Count Rate [3]: 3.876 | Zeta-Pot. [4, 18]: 14.7 | Zeta-Potential / mV [4, 15]: 16.02 mV | Zeta-Potential / mV [4, 16]: 14.7 mV
